# Laboratory results: ChEMBL document CHEMBL5608189, “Design and synthesis of unique indole-benzosulfonamide oleanolic acid derivatives as potent antibacterial agents against MRSA” (Eur J Med Chem, 2024)
# The source made the active and inactive calls. No cut-off for these calls is given here.
# Columns and labels:
# Staphylococcus aureus [1] = experiment: Antibacterial activity against Staphylococcus aureus ATCC 6538 measured after 24 hrs by susceptibility assay; format: functional
# Staphylococcus aureus [2] = experiment: Antibacterial activity against methicillin-resistant Staphylococcus aureus measured after 24 hrs by susceptibility assay; format: functional
# Staphylococcus aureus [3] = experiment: Antibacterial activity against Staphylococcus aureus ATCC 29213 measured after 24 hrs by susceptibility assay; format: functional
# Staphylococcus aureus [4] = experiment: Bactericidal activity against Staphylococcus aureus ATCC 6538 measured after 24 hrs; format: functional
# Staphylococcus aureus [5] = experiment: Bactericidal activity against Staphylococcus aureus ATCC 29213 measured after 24 hrs; format: functional
# [6] = test system: Staphylococcus epidermidis; experiment: Bactericidal activity against Staphylococcus epidermidis ATCC 12228 measured after 24 hrs; format: functional
# Staphylococcus aureus [7] = experiment: Bactericidal activity against methicillin-resistant Staphylococcus aureus measured after 24 hrs; format: functional
# Staphylococcus aureus [8] = experiment: Antibacterial activity against Staphylococcus aureus ATCC 6538 assessed as inhibition of bacterial growth at 1 times MIC measured every 2 hrs for 24 hrs by time kill assay; format: functional, organism-based
# [9] = test system: Staphylococcus epidermidis; experiment: Antibacterial activity against Staphylococcus epidermidis ATCC 12228 assessed as inhibition of bacterial growth at 1 times MIC measured every 2 hrs for 24 hrs by time kill assay; format: functional, organism-based
# Staphylococcus aureus [10] = experiment: Antibacterial activity against Staphylococcus aureus ATCC 6538 assessed as delay in bacterial growth at 0.5 times MIC measured every 2 hrs for 24 hrs by time kill assay; format: functional, organism-based
# [11] = test system: Staphylococcus epidermidis; experiment: Antibacterial activity against Staphylococcus epidermidis ATCC 12228 assessed as delay in bacterial growth at 0.5 times MIC measured every 2 hrs for 24 hrs by time kill assay; format: functional, organism-based
# Staphylococcus aureus [12] = experiment: Antibacterial activity against methicillin-resistant Staphylococcus aureus assessed as delay in bacterial growth at 0.5 times MIC measured every 2 hrs for 24 hrs by time kill assay; format: functional, organism-based
# Staphylococcus aureus [13] = experiment: Antibacterial activity against Staphylococcus aureus ATCC 6538 assessed as inhibition of bacterial growth at 2 to 4 times MIC measured every 2 hrs for 24 hrs by time kill assay relative to control; format: functional
# [14] = test system: Staphylococcus epidermidis; experiment: Antibacterial activity against Staphylococcus epidermidis ATCC 12228 assessed as inhibition of bacterial growth at 2 to 4 times MIC measured every 2 hrs for 24 hrs by time kill assay relative to control; format: functional
# Staphylococcus aureus [15] = experiment: Antibacterial activity against methicillin-resistant Staphylococcus aureus assessed as inhibition of bacterial growth at 2 to 4 times MIC measured every 2 hrs for 24 hrs by time kill assay relative to control; format: functional
# [16] = Hemolytic activity in rabbit red blood cells assessed as hemolytic rate at 128 times MIC measured after 1 hr by absorbance based method relative to control; format: toxicity, cell-based, Oryctolagus cuniculus, Erythrocyte; conditions: rabbit red blood cells (erythrocytes), read-out: Activity
# Staphylococcus aureus [17] = experiment: Resistant development in methicillin-resistant Staphylococcus aureus assessed as increase in MIC at sub-MIC measured after 20 passages; format: functional, organism-based
# Staphylococcus aureus [18] = experiment: Antibiofilm activity in methicillin-resistant Staphylococcus aureus assessed as inhibition of biofilm formation at 16 times MIC measured after 24 hrs by crystal violet staining based analysis relative to control; format: functional
# Staphylococcus aureus [19] = experiment: Antibiofilm activity in methicillin-resistant Staphylococcus aureus assessed as eradication of formed biofilm by measuring reduction in biofilm mass at 1 times MIC measured after 24 hrs by crystal violet staining based analysis relative to control; format: functional; parameters: scale not given: the % may be the effect or the level left
# Staphylococcus aureus [20] = experiment: Antibacterial activity against methicillin-resistant Staphylococcus aureus assessed as reduction in metabolic activity at 1 to 8 times MIC measured after 24 hrs by alamar blue assay; format: functional, organism-based
# Cell membrane [21] = experiment: Disruption of cell membrane integrity in methicillin-resistant Staphylococcus aureus assessed as protein leakage at 8 times MIC incubated for 8 hrs by BCA assay; format: cell membranes
# Staphylococcus aureus [22] = experiment: Induction of morphological changes in methicillin-resistant Staphylococcus aureus assessed as disruption of cellular structure at 8 times MIC incubated for 8 hrs by SEM analysis; format: functional, organism-based
# Staphylococcus aureus [23] = experiment: Induction of morphological changes in methicillin-resistant Staphylococcus aureus assessed as disruption of cell membrane integrity at 8 times MIC incubated for 8 hrs by SEM analysis; format: functional, organism-based
# Cell membrane [24] = experiment: Disruption of cell membrane integrity in methicillin-resistant Staphylococcus aureus assessed as rupture of cell membrane at 8 times MIC incubated for 8 hrs by TEM analysis; format: cell membranes
# Cell membrane [25] = experiment: Induction of membrane depolarization in methicillin-resistant Staphylococcus aureus assessed as increase in fluorescence intensity at 1 to 8 times MIC measured after 30 mins by DiSC3(5) dye based spectrofluorometer; format: cell membranes
# Cell membrane [26] = experiment: Induction of cell membrane in methicillin-resistant Staphylococcus aureus assessed as increase in fluorescence intensity at 1 to 8 times MIC measured after 30 mins by SYTOX green dye based spectrofluorometer; format: cell membranes
# Cell membrane [27] = experiment: Induction of cell membrane in methicillin-resistant Staphylococcus aureus assessed as increase in fluorescence intensity by measuring number of PI-permeable cells at 2 times MIC measured after 2 hrs by PI staining based flow cytometry analysis (reference value: 5.71); format: cell membranes
# Cell membrane [28] = experiment: Induction of cell membrane in methicillin-resistant Staphylococcus aureus assessed as increase in fluorescence intensity by measuring number of PI-permeable cells at 8 times MIC measured after 2 hrs by PI staining based flow cytometry analysis (reference value: 5.71); format: cell membranes
# NIH3T3 = experiment: Cytotoxicity against mouse NIH3T3 cells assessed as reduction in cell viability upto 64 times MIC incubated for 24 hrs by CCK-8 assay; format: toxicity, cell-based; conditions: nih3t3, 24 h
# HEK-293T = experiment: Cytotoxicity against HEK293T cells assessed as reduction in cell viability upto 64 times MIC incubated for 24 hrs by CCK-8 assay; format: toxicity, cell-based; conditions: human
# Staphylococcus aureus [29] = experiment: Antibacterial activity against methicillin-resistant Staphylococcus aureus infected in female C57BL/6 mouse wound model assessed as log reduction in viable bacterial count at 30 mg/kg administered twice on wounds with 6 hrs interval and measured for 7 days; format: functional; conditions: time 7 day
# Staphylococcus aureus [30] = experiment: Antibacterial activity against methicillin-resistant Staphylococcus aureus infected in female C57BL/6 mouse wound model assessed as reduction in wound area at 30 mg/kg administered twice on wounds with 6 hrs interval and measured for 7 days; format: functional, organism-based; conditions: time 7.0 day
# [31] = Toxicity in female C57BL/6 mouse assessed as edema in skin at 10 to 30 mg/kg administered daily for 3 days; format: organism-based; conditions: in vivo, 72 h, dose 10-30 mg/kg, time 3 day
# [32] = Toxicity in female C57BL/6 mouse assessed as changes in skin tissue at 10 to 30 mg/kg administered daily for 3 days and measured on day 4 by H and E staining based microscopic analysis; format: organism-based; conditions: in vivo, 96 h, dose 10-30 mg/kg, time 4 day
# Staphylococcus aureus [33] = experiment: Induction of intracellular ROS accumulation in methicillin-resistant Staphylococcus aureus assessed as number of fluorescence cells at 1 times MIC incubated for 6 hrs by DCFH-DA staining based flow cytometry analysis (reference value: 3.88)
# Staphylococcus aureus [34] = experiment: Induction of intracellular ROS accumulation in methicillin-resistant Staphylococcus aureus assessed as number of fluorescence cells at 4 times MIC incubated for 6 hrs by DCFH-DA staining based flow cytometry analysis (reference value: 3.88)
# Staphylococcus aureus [35] = experiment: Induction of intracellular ROS accumulation in methicillin-resistant Staphylococcus aureus assessed as number of fluorescence cells at 8 times MIC incubated for 6 hrs by DCFH-DA staining based flow cytometry analysis (reference value: 3.88)
smiles,measurement,setting,value
CC1(C)CC[C@]2(C(=O)NS(=O)(=O)c3ccc(Cl)cc3)CC[C@]3(C)C(=CC[C@@H]4[C@@]5(C)Cc6c([nH]c7c(C(=O)O)cccc67)C(C)(C)[C@@H]5CC[C@]43C)[C@@H]2C1,MIC,Staphylococcus aureus [1],1 µM
same,MIC,Staphylococcus aureus [2],1 µM
same,MIC,Staphylococcus aureus [3],2 µM
same,MBC,Staphylococcus aureus [4],2 µM
same,MBC,Staphylococcus aureus [5],2 µM
same,MBC,[6],2 µM
same,MBC,Staphylococcus aureus [7],4 µM
same,Activity,Staphylococcus aureus [8],Active
same,Activity,[9],Active
same,Activity,Staphylococcus aureus [10],Active
same,Activity,[11],Active
same,Activity,Staphylococcus aureus [12],Active
same,inhibition (INH),Staphylococcus aureus [13],100%
same,inhibition (INH),[14],100%
same,inhibition (INH),Staphylococcus aureus [15],100%
same,"hemolysis at 1 h, 128 times MIC",[16],< 5%
same,Activity,Staphylococcus aureus [17],inactive
same,inhibition (INH),Staphylococcus aureus [18],81%
same,Activity,Staphylococcus aureus [19],52%
same,Activity,Staphylococcus aureus [20],Dose-Dependent Effect
same,Activity,Cell membrane [21],168 µg/mL
same,Activity,Staphylococcus aureus [22],Active
same,Activity,Staphylococcus aureus [23],Active
same,Activity,Cell membrane [24],Active
same,Activity,Cell membrane [25],Dose-Dependent Effect
same,Activity,Cell membrane [26],Dose-Dependent Effect
same,Activity,Cell membrane [27],11.6
same,Activity,Cell membrane [28],46.5
same,Activity,NIH3T3,Non-Toxic
same,Activity,HEK-293T,Non-Toxic
same,log(activity),Staphylococcus aureus [29],2.5
same,Activity,Staphylococcus aureus [30],Active
same,Activity,[31],Non-Toxic
same,Activity,[32],Non-Toxic
same,Activity,Staphylococcus aureus [33],1.96
same,Activity,Staphylococcus aureus [34],1.91
same,Activity,Staphylococcus aureus [35],1.99
